Experiment [1] concerns patients with untreated metastatic renal cell carcinoma. Briefly: IMmotion151 PFS analysis in biomarker-evaluable subgroups (Angio and Teff gene signatures, MSKCC risk). The format is in vivo, human. The method, then: The MSKCC (Motzer) criteria used were as follows. The risk factors included 1) a Karnofsky Performance Status (KPS) score <80; 2) a corrected serum calcium >10 mg/dL; 3) an LDH level >1.5 times the upper limit of normal; 4) a hemoglobin level <the lower limit of normal; 5) a time from nephrectomy to systemic therapy of […] (an individual also was scored as having this risk factor if they were initially assessed with metastatic disease or if they have had no nephrectomy). The risk stratification was as follows: individuals having 3 risk factors belong to the poor risk subgroup; individuals having 1 or 2 risk factors belong to the intermediate risk subgroup; and individuals having 0 risk factors belong to the favorable group. For study purposes, systemic therapy was designated as the date of initial study screening. The formula for corrected calcium was Corrected calcium=serum calcium (mg/dL)+0.8 (4 […] serum albumin (g/dL)).
In the phase II IMmotion150 study, gene signatures were identified based on association with clinical outcome. The T-effector (“Teff”) signature included CD8a, IFNG, PRF1, EOMES, and CD274. The Angiogenesis (“Angio”) signature included VEGFA, KDR, ESM1, PECAM1, CD34, and ANGPTL4. […] In the IMmotion151 study, a pre-specified analysis of association with PFS was performed. Unstratified HR and log-rank test were used for PFS analyses in biomarker-evaluable patients. The IMmotion151 transcriptome map confirmed biological subgroups identified in […], including the angiogenesis, immune and antigen presentation (including the Teff signature), and myeloid inflammation subgroups (FIG. 4).

The subject of experiment [2] is patients with inoperable, locally advanced, or metastatic RCC. Description: IMmotion151 Phase III study: efficacy of atezolizumab plus bevacizumab versus sunitinib (ITT and PD-L1+ populations). The experiment is classed as in vivo, human. Particulars: investigator-assessed. An excerpt: The IMmotion151 study (ClinicalTrials.gov Identifier NCT02420821) is a multi-center, randomized, open-label study to evaluate the efficacy and safety of atezolizumab plus bevacizumab versus sunitinib in patients with inoperable, locally advanced, or metastatic RCC who have not received prior systemic active or experimental therapy in either the adjuvant or metastatic setting. The co-primary endpoints of the study were PFS in the PD-L1^+ subgroup, and OS in the ITT population. The exploratory endpoints included biomarker characterization in sarcomatoid tumors and MSKCC risk subgroups, as well as validation of gene signatures from the IMmotion150 study and their association with PFS. […]
IMmotion151 is a multicenter, randomized, open-label, Phase III study evaluating the efficacy and safety of atezolizumab+bevacizumab vs those of sunitinib in patients with previously untreated, inoperable, locally advanced or metastatic RCC (FIG. 1). The co-primary endpoints were (i) investigator (INV)-assessed progression-free survival (PFS) in patients with ≥1% IC expressing PD-L1 (PD-L1+) and (ii) interim overall survival (OS) in the intent-to-treat (ITT) population. […]

For the compound `CCN(CC)CCNC(=O)c1c(C)[nH]c(/C=C2\C(=O)Nc3ccc(F)cc32)c1C` [Sunitinib, N-[2-(Diethylamino)ethyl]-5-[(Z)-(5-fluoro-2-oxo-1,2-dihydro-3H-indol-3-ylidene)methyl]-2,4-dimethyl-1H-pyrrole-3-carboxamide], the “Teff gene signature and PFS within the treatment arm” value in experiment [1] (Teff High versus Low within arm, in words) is “did not differentiate PFS”. Also, the “PFS in the Angio High subgroup versus the Angio Low subgroup” value in experiment [1] (within sunitinib arm, in words) is reported as “improved PFS”. Further, the “PFS HR (95% CI) for Angiogenesis (High versus Low)” value in experiment [1] (within treatment arm) was 0.59 (0.47, 0.75). In addition, the “median PFS” value in experiment [2] (ITT population) was 8.4 months; in experiment [2] (PD-L1+ patients) it was 7.7 months.

The values are drawn from patent US20210253710A1, “DIAGNOSTIC AND THERAPEUTIC METHODS FOR KIDNEY CANCER” (Genentech, Inc., priority 2018, published 2021).
